Patent US12304932B2, “PACAP stabilized peptide” (SENJU PHARMACEUTICAL CO., LTD., priority 2017, dated 2025)
Square brackets hold non-standard residues; d marks the D form. Peptide text beside a SMILES is read from it. Ala(1H-tetrazol-5-yl) = N[C@@H](Cc1nnn[nH]1)C(=O)O

Assay: Peptide stability tests 2 and 3: Tris buffer pH 7.0, stored at 60° C., HPLC conditions 2
Format: physicochemical
Conditions: 100 μM peptide, Tris buffer pH 7.0, 60° C.; for survival rate after correction for water, 60° C., 2-week storage: 2 weeks
Experimental: (§1) Peptides 1, 2 and 6 to 9 synthesized in Example 2 were weighed and dissolved in Tris buffer (pH 7.0) to prepare 1.0 mM peptide solutions. The solutions were filtered with a Chromatdisk (product of Merck Millipore, Millex-GV, 0.22 μm). Each filtrate was diluted to 100 μM with Tris buffer (pH 7.0) and dispensed into a tube (Protein LoBind Tube by Eppendorf Co.). The prepared peptide solutions were incubated for 1 week or 2 weeks in a 60° C. thermostatic bath to obtain stored samples. A simultaneously prepared sample among the peptide solutions that was not stored was used as a standard sample (initial sample). The standard sample and the stored samples were stored at −30° C. until sample analysis.
Each stored sample was measured under the following HPLC analysis conditions 2, and the survival rate after correction for water for each peptide among the stored samples was calculated in the same manner as Example 3.
Column: XSelect CSH C18 by Waters Co., 5 μm, 4.6×250 mm
Guard column: XSelect CSH C18 by Waters. Co., 5 μm, 4.6×20 mm Guard Cartridge
Detection wavelength: 220 nm
Mobile phase A: 0.1% formic acid in water
Mobile phase B: 0.1% formic acid in acetonitrile
Measuring time: 20 minutes
Measuring sample injection rate: 50 μL
Column temperature: 40° C.
Mobile phase delivery: The mixing ratio of mobile phase A and mobile phase B was varied as shown in Table 5 for linear concentration gradient control.
as §1, with “Peptides 12 to 25, 27” for “Peptides 1, 2”, “and 28” for “and 6 to 9”, “for one” for “for 1”
The survival rate after correction for water for each peptide among the stored samples was calculated in the same manner as Example 4, and the results are shown in Table 7.
as §1, with “29” for “1, 2 and 6”, “34” for “9”, “for” for “for 1 week or”
The survival rate after correction for water for each peptide among the stored samples was calculated in the same manner as Example 4, and the results are shown in Table 7-2.

Structure (SMILES)	survival rate after correction for water, 60° C., 1-week storage [%]	survival rate after correction for water, 60° C., 2-week storage [%]
CC[C@H](C)[C@H](NC(=O)CNC(=O)[C@H](Cc1nnn[nH]1)NC(=O)[C@H](C)NC(=O)[C@H](Cc1c[nH]cn1)NC(C)=O)C(=O)N[C@@H](Cc1ccccc1)C(=O)N[C@H](C(=O)N[C@@H](Cc1nnn[nH]1)C(=O)N[C@@H](CO)C(=O)N[C@@H](Cc1ccc(O)cc1)C(=O)N[C@@H](CO)C(=O)N[C@@H](CCCNC(=N)N)C(=O)N[C@@H](Cc1ccc(O)cc1)C(=O)N[C@@H](CCCNC(=N)N)C(=O)N[C@@H](CCCCN)C(=O)N[C@@H](CCC(N)=O)C(=O)N[C@@H](CC(C)C)C(=O)N[C@@H](C)C(=O)N[C@H](C(=O)N[C@@H](CCCCN)C(=O)N[C@@H](CCCCN)C(=O)N[C@@H](Cc1ccc(O)cc1)C(=O)N[C@@H](CC(C)C)C(=O)N[C@@H](C)C(=O)N[C@@H](C)C(=O)N[C@H](C(=O)N[C@@H](CC(C)C)C(N)=O)C(C)C)C(C)C)[C@@H](C)O [Peptide 14] (Ac-HA[Ala(1H-tetrazol-5-yl)]GIFT[Ala(1H-tetrazol-5-yl)]SYSRYRKQLAVKKYLAAVL-NH2)	96.7	94.5
CC[C@H](C)[C@H](NC(=O)CNC(=O)[C@H](Cc1nnn[nH]1)NC(=O)[C@H](CO)NC(=O)[C@H](Cc1c[nH]cn1)NC(C)=O)C(=O)N[C@@H](Cc1ccccc1)C(=O)N[C@H](C(=O)N[C@@H](Cc1nnn[nH]1)C(=O)N[C@@H](C)C(=O)N[C@@H](Cc1ccc(O)cc1)C(=O)N[C@@H](CO)C(=O)N[C@@H](CCCNC(=N)N)C(=O)N[C@@H](Cc1ccc(O)cc1)C(=O)N[C@@H](CCCNC(=N)N)C(=O)N[C@@H](CCCCN)C(=O)N[C@@H](CCC(N)=O)C(=O)N[C@@H](CC(C)C)C(=O)N[C@@H](C)C(=O)N[C@H](C(=O)N[C@@H](CCCCN)C(=O)N[C@@H](CCCCN)C(=O)N[C@@H](Cc1ccc(O)cc1)C(=O)N[C@@H](CC(C)C)C(=O)N[C@@H](C)C(=O)N[C@@H](C)C(=O)N[C@H](C(=O)N[C@@H](CC(C)C)C(N)=O)C(C)C)C(C)C)[C@@H](C)O [Peptide 15] (Ac-HS[Ala(1H-tetrazol-5-yl)]GIFT[Ala(1H-tetrazol-5-yl)]AYSRYRKQLAVKKYLAAVL-NH2)	97.3	94.9
CC[C@H](C)[C@H](NC(=O)CNC(=O)[C@H](Cc1nnn[nH]1)NC(=O)[C@H](CO)NC(=O)[C@H](Cc1c[nH]cn1)NC(C)=O)C(=O)N[C@@H](Cc1ccccc1)C(=O)N[C@H](C(=O)N[C@@H](Cc1nnn[nH]1)C(=O)N[C@@H](CO)C(=O)N[C@@H](Cc1ccc(O)cc1)C(=O)N[C@@H](C)C(=O)N[C@@H](CCCNC(=N)N)C(=O)N[C@@H](Cc1ccc(O)cc1)C(=O)N[C@@H](CCCNC(=N)N)C(=O)N[C@@H](CCCCN)C(=O)N[C@@H](CCC(N)=O)C(=O)N[C@@H](CC(C)C)C(=O)N[C@@H](C)C(=O)N[C@H](C(=O)N[C@@H](CCCCN)C(=O)N[C@@H](CCCCN)C(=O)N[C@@H](Cc1ccc(O)cc1)C(=O)N[C@@H](CC(C)C)C(=O)N[C@@H](C)C(=O)N[C@@H](C)C(=O)N[C@H](C(=O)N[C@@H](CC(C)C)C(N)=O)C(C)C)C(C)C)[C@@H](C)O [Peptide 16] (Ac-HS[Ala(1H-tetrazol-5-yl)]GIFT[Ala(1H-tetrazol-5-yl)]SYARYRKQLAVKKYLAAVL-NH2)	98.1	93.5
CC[C@H](C)[C@H](NC(=O)CNC(=O)[C@H](Cc1nnn[nH]1)NC(=O)[C@H](CO)NC(=O)[C@H](Cc1c[nH]cn1)NC(C)=O)C(=O)N[C@@H](Cc1ccccc1)C(=O)N[C@H](C(=O)N[C@@H](Cc1nnn[nH]1)C(=O)N[C@@H](CO)C(=O)N[C@@H](Cc1ccc(O)cc1)C(=O)N[C@@H](CO)C(=O)N[C@@H](CCCNC(=N)N)C(=O)N[C@@H](Cc1ccc(O)cc1)C(=O)N[C@@H](CCCNC(=N)N)C(=O)N[C@@H](CCCCN)C(=O)N[C@@H](C)C(=O)N[C@@H](CC(C)C)C(=O)N[C@@H](C)C(=O)N[C@H](C(=O)N[C@@H](CCCCN)C(=O)N[C@@H](CCCCN)C(=O)N[C@@H](Cc1ccc(O)cc1)C(=O)N[C@@H](CC(C)C)C(=O)N[C@@H](C)C(=O)N[C@@H](C)C(=O)N[C@H](C(=O)N[C@@H](CC(C)C)C(N)=O)C(C)C)C(C)C)[C@@H](C)O [Peptide 17] (Ac-HS[Ala(1H-tetrazol-5-yl)]GIFT[Ala(1H-tetrazol-5-yl)]SYSRYRKALAVKKYLAAVL-NH2)	97.8	93.4
CC[C@H](C)[C@H](NC(=O)CNC(=O)[C@H](Cc1nnn[nH]1)NC(=O)[C@H](CO)NC(=O)[C@H](Cc1c[nH]cn1)NC(C)=O)C(=O)N[C@@H](Cc1ccccc1)C(=O)N[C@H](C(=O)N[C@@H](Cc1nnn[nH]1)C(=O)N[C@@H](CO)C(=O)N[C@@H](Cc1ccc(O)cc1)C(=O)N[C@@H](CO)C(=O)N[C@@H](CCCNC(=N)N)C(=O)N[C@@H](Cc1ccc(O)cc1)C(=O)N[C@@H](CCCNC(=N)N)C(=O)N[C@@H](CCCCN)C(=O)N[C@@H](CCC(N)=O)C(=O)N[C@@H](C)C(=O)N[C@@H](C)C(=O)N[C@H](C(=O)N[C@@H](CCCCN)C(=O)N[C@@H](CCCCN)C(=O)N[C@@H](Cc1ccc(O)cc1)C(=O)N[C@@H](CC(C)C)C(=O)N[C@@H](C)C(=O)N[C@@H](C)C(=O)N[C@H](C(=O)N[C@@H](CC(C)C)C(N)=O)C(C)C)C(C)C)[C@@H](C)O [Peptide 18] (Ac-HS[Ala(1H-tetrazol-5-yl)]GIFT[Ala(1H-tetrazol-5-yl)]SYSRYRKQAAVKKYLAAVL-NH2)	96.7	90.6
CC[C@H](C)[C@H](NC(=O)CNC(=O)[C@H](Cc1nnn[nH]1)NC(=O)[C@H](CO)NC(=O)[C@H](Cc1c[nH]cn1)NC(C)=O)C(=O)N[C@@H](Cc1ccccc1)C(=O)N[C@H](C(=O)N[C@@H](Cc1nnn[nH]1)C(=O)N[C@@H](CO)C(=O)N[C@@H](Cc1ccc(O)cc1)C(=O)N[C@@H](CO)C(=O)N[C@@H](CCCNC(=N)N)C(=O)N[C@@H](Cc1ccc(O)cc1)C(=O)N[C@@H](CCCNC(=N)N)C(=O)N[C@@H](CCCCN)C(=O)N[C@@H](CCC(N)=O)C(=O)N[C@@H](CC(C)C)C(=O)N[C@@H](C)C(=O)N[C@@H](C)C(=O)N[C@@H](CCCCN)C(=O)N[C@@H](CCCCN)C(=O)N[C@@H](Cc1ccc(O)cc1)C(=O)N[C@@H](CC(C)C)C(=O)N[C@@H](C)C(=O)N[C@@H](C)C(=O)N[C@H](C(=O)N[C@@H](CC(C)C)C(N)=O)C(C)C)[C@@H](C)O [Peptide 19] (Ac-HS[Ala(1H-tetrazol-5-yl)]GIFT[Ala(1H-tetrazol-5-yl)]SYSRYRKQLAAKKYLAAVL-NH2)	95.8	92.7
